Data taken from patent US20240270821A1, “GIP/GLP1/GCG TRI-RECEPTOR AGONISTS AND USES THEREOF” (priority 2023, published 2024).
Read-outs that look alike come from different tables or passages of the source. Starred links: 1 amine or outer side, 2 acyl side, 3 side chain; linkers in the order of their positions; H or OH if unused. Non-standard residues stand in square brackets, D forms with d. Residues, ends and D or L forms follow the SMILES beside them. Groups on a side chain read outwards from the residue. No end group written: not given here. *: point of attachment. C20 diacid = O=C(O)CCCCCCCCCCCCCCCCCCC(=O)*; C18 diacid = O=C(O)CCCCCCCCCCCCCCCCC(=O)*; αMePhe(2-F) = C[C@](N)(Cc1ccccc1F)C(=O)O; γGlu = O=C(O)[C@H](CCC(=O)[*:2])N[*:1]; αMe4Pal = C[C@](N)(Cc1ccncc1)C(=O)O; αMeY = C[C@](N)(Cc1ccc(O)cc1)C(=O)O; Hyp = O=C(O)[C@@H]1C[C@@H](O)CN1; αMeF = C[C@](N)(Cc1ccccc1)C(=O)O; 4Pal = N[C@@H](Cc1ccncc1)C(=O)O; αMeL = CC(C)C[C@](C)(N)C(=O)O; αMeS = C[C@](N)(CO)C(=O)O; Orn = NCCC[C@H](N)C(=O)O; AEEA = NCCOCCOCC(=O)O; Aib = CC(C)(N)C(=O)O

Key:
Format in all cases: cell-based
[1] = target: T1, hGIPR (Homo sapiens, UniProt P48546); assay: Functional cAMP activity in the presence of 1% HSA; settings: read-out: cAMP Rel EC50, hGIPR
T1 sequence (P48546 22-466): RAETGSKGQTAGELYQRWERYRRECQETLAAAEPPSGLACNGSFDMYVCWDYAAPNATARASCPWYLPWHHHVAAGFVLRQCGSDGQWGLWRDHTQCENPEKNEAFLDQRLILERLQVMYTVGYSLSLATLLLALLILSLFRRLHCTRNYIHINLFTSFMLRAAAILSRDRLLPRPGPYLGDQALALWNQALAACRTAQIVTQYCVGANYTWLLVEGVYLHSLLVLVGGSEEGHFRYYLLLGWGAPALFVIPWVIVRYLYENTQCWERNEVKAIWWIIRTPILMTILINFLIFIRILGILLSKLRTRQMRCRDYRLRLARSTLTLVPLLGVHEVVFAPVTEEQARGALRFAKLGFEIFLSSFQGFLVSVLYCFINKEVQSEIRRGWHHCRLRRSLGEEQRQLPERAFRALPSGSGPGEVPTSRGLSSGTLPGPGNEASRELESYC

[2] = target: T2, hGLP-1R (Homo sapiens, UniProt P43220); assay: Functional cAMP activity in the presence of 1% HSA; settings: read-out: cAMP Rel EC50, hGLP-1R
T2 sequence (P43220 24-463): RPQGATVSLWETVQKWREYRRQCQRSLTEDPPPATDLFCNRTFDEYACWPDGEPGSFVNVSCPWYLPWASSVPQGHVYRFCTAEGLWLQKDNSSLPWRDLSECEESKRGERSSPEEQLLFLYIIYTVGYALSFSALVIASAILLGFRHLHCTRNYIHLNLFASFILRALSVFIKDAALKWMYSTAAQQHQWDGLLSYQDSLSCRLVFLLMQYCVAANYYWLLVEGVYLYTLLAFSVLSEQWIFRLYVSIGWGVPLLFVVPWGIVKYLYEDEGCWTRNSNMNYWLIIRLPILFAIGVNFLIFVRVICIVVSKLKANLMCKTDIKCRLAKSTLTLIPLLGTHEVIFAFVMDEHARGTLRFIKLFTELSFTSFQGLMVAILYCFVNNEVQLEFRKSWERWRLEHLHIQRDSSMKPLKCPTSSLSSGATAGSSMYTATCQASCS

[3] = target: human GcgR (Homo sapiens, UniProt P47871); assay: Functional cAMP activity in the presence of 1% HSA; settings: read-out: cAMP Rel EC50, hGcgR
human GcgR, sequence (P47871 26-477): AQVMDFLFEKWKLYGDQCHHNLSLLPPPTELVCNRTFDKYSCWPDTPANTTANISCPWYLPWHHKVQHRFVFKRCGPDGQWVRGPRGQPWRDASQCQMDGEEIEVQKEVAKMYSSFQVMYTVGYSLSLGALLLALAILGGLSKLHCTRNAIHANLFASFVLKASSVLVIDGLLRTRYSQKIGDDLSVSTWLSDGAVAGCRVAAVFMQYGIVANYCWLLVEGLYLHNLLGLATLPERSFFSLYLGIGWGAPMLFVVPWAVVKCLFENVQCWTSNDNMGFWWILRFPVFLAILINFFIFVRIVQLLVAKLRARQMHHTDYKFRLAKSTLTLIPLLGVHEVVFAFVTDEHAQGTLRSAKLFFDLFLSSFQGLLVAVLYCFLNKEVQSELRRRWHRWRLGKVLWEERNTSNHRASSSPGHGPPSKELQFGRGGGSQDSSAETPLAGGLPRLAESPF

[4] = target: T1, hGIPR; assay: Functional cAMP activation in the presence of 0.1% casein (no HSA); settings: read-out: Relative cAMP EC50, hGIPR;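 for Relative cAMP EC50, hGIPR: intracellular cAMP rise after 30 min at 37 °C read by HTRF against a standard curve, scaled between buffer alone (0%) and top control ligand concentration (100%), four-parameter fit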;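 for Relative cAMP EC50, hGLP-1R: intracellular cAMP rise after 30 min at 37 °C read by HTRF, normalized between buffer only (0%) and maximal control ligand (100%), four-parameter variable-slope fit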;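 for Relative cAMP EC50, hGcgR: intracellular cAMP rise after 30 min at 37 °C, read by HTRF against a cAMP standard curve, scaled from buffer only (0%) to maximal control ligand response (100%)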
[5] = target: hGcgR (Homo sapiens, UniProt P47871); assay: as above; settings: read-out: Relative cAMP EC50, hGcgR;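 note: intracellular cAMP rise after 30 min at 37 °C, read by HTRF against a cAMP standard curve, scaled from buffer only (0%) to maximal control ligand response (100%)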
hGcgR, sequence (P47871 26-477): as above

[6] = target: T2, hGLP-1R; assay: as above; settings: read-out: Relative cAMP EC50, hGLP-1R
[7] = HEK-293 clonal cell line, 1% HSA, geometric mean of relative EC50
[8] = in the presence of 0.1% casein (no HSA), geometric mean of relative EC50
[9] = 0.1% casein, no HSA, geometric mean
[10] = in the presence of 0.1% casein (no HSA), geometric mean

Compound | EC50 [1] [nM] | EC50 [2] [nM] | EC50 [3] [nM] | EC50 [4] [nM] | EC50 [5] [nM] | EC50 [6] [nM] | EC50 [4, 10] [nM] | EC50 [5, 10] [nM] | EC50 [6, 10] [nM] | also measured
CC[C@H](C)[C@H](NC(=O)[C@H](Cc1ccccc1)NC(=O)[C@H](C)NC(=O)C(C)(C)NC(=O)[C@H](CCC(N)=O)NC(=O)[C@H](C)NC(=O)[C@H](CCCCNC(=O)COCCOCCNC(=O)COCCOCCNC(=O)CC[C@H](NC(=O)CCCCCCCCCCCCCCCCC(=O)O)C(=O)O)NC(=O)[C@H](CCCCN)NC(=O)[C@H](CC(=O)O)NC(=O)[C@H](CC(C)C)NC(=O)[C@H](CC(C)C)NC(=O)[C@@H](NC(=O)[C@H](CO)NC(=O)[C@H](Cc1ccncc1)NC(=O)[C@H](CC(=O)O)NC(=O)[C@H](CO)NC(=O)[C@@H](NC(=O)[C@](C)(Cc1ccccc1)NC(=O)[C@@H](NC(=O)CNC(=O)[C@H](CCC(N)=O)NC(=O)C(C)(C)NC(=O)[C@@H](N)Cc1ccc(O)cc1)[C@@H](C)O)[C@@H](C)O)[C@@H](C)CC)C(=O)N[C@@H](CCC(=O)O)C(=O)N[C@@H](Cc1ccc(O)cc1)C(=O)N[C@@H](CC(C)C)C(=O)N[C@@H](CC(C)C)C(=O)N[C@@H](CCC(=O)O)C(=O)NCC(=O)NCC(=O)N1CCC[C@H]1C(=O)N[C@@H](CO)C(=O)N[C@@H](CO)C(=O)NCC(=O)N[C@@H](C)C(=O)N1CCC[C@H]1C(=O)N1CCC[C@H]1C(=O)N1CCC[C@H]1C(=O)N[C@@H](CO)C(N)=O [Example 418] (H-Y[Aib]QGT[αMeF]TSD[4Pal]SILLDKK([AEEA-AEEA-γGlu-C18 diacid])AQ[Aib]AFIEYLLEGGPSSGAPPPS-NH2; N-terminus assumed) | 6.02 | 36.6 | 627 | 0.0153 | 4.7 | 0.264 | – | – | – | –
H-Y[Aib]QGT[αMePhe(2-F)]TSD[4Pal][αMeS]I[αMeL]LD[Orn]K([γGlu-γGlu-C18 diacid])AQ[αMe4Pal]EFI[dE][αMeY]LIEGGPSSGEPPPSGSE-NH2 [Example 716] | 0.557 | 24.1 | 100 | 0.00853 | 1.12 | 0.321 | – | – | – | –
Y[Aib]QGT[αMePhe(2-F)]TSD[4Pal]SI[αMeL]LD[Orn]K([AEEA-γGlu-C18 diacid])AQ[αMe4Pal][Orn]FI[dE][αMeY]LIEGGPSSGEPPPEGEG[dE]-NH2 [Example 692] | – | – | – | – | – | – | – | – | – | EC50 [1, 7]: 1.25 nM; EC50 [2, 7]: 25.2 nM; EC50 [3, 7]: 380 nM; EC50 [4, 8]: 0.0106 nM; EC50 [5, 8]: 2.14 nM; EC50 [6, 8]: 0.252 nM
Y[Aib]QGT[αMePhe(2-F)]TSD[4Pal][αMeS]I[αMeL]LD[Orn]K([AEEA-γGlu-C18 diacid])AQ[αMe4Pal]EFI[dE][αMeY]LIEGGPPS[Aib][Orn]PPP[Orn]SE-NH2 [Example 1196] | 0.605 | 45.4 | 257 | – | – | – | – | – | – | EC50 [4, 9]: 0.00756 nM; EC50 [5, 9]: 1.9 nM; EC50 [6, 9]: 0.418 nM
CC[C@H](C)[C@H](NC(=O)[C@H](Cc1ccccc1)NC(=O)[C@H](C)NC(=O)C(C)(C)NC(=O)[C@H](CCC(N)=O)NC(=O)[C@H](C)NC(=O)[C@H](CCCCNC(=O)COCCOCCNC(=O)CC[C@H](NC(=O)CCCCCCCCCCCCCCCCC(=O)O)C(=O)O)NC(=O)[C@H](CCCCN)NC(=O)[C@H](CC(=O)O)NC(=O)[C@H](CC(C)C)NC(=O)[C@](C)(CC(C)C)NC(=O)[C@@H](NC(=O)[C@H](CO)NC(=O)[C@H](Cc1ccncc1)NC(=O)[C@H](CC(=O)O)NC(=O)[C@H](CO)NC(=O)[C@@H](NC(=O)[C@](C)(Cc1ccccc1F)NC(=O)[C@@H](NC(=O)CNC(=O)[C@H](CCC(N)=O)NC(=O)C(C)(C)NC(=O)[C@@H](N)Cc1ccc(O)cc1)[C@@H](C)O)[C@@H](C)O)[C@@H](C)CC)C(=O)N[C@@H](CCC(=O)O)C(=O)N[C@@H](Cc1ccc(O)cc1)C(=O)N[C@@H](CC(C)C)C(=O)N[C@@H](CCC(=O)O)C(=O)N[C@@H](CCC(=O)O)C(=O)NCC(=O)NCC(=O)N1CCC[C@H]1C(=O)N[C@@H](CO)C(=O)N[C@@H](CO)C(=O)NCC(=O)N[C@@H](C)C(=O)N1CCC[C@H]1C(=O)N1CCC[C@H]1C(=O)N1CCC[C@H]1C(=O)N[C@@H](CCC(=O)O)C(N)=O [Example 445] (H-Y[Aib]QGT[αMePhe(2-F)]TSD[4Pal]SI[αMeL]LDKK([AEEA-γGlu-C18 diacid])AQ[Aib]AFIEYLEEGGPSSGAPPPE-NH2) | 2.41 | 23.2 | 448 | 0.0206 | 10.1 | 0.731 | – | – | – | –
H-Y[Aib]QGT[αMePhe(2-F)]TSD[4Pal]SI[αMeL]LD[Orn]K([γGlu-γGlu-C18 diacid])AQ[αMe4Pal][Orn]FI[dE][αMeY]LIEGGPSSGEPPPEGTGE-NH2 [Example 688] | 0.61 | 19.5 | 182 | 0.00881 | 2.06 | 0.304 | – | – | – | –
H-Y[Aib]QGTFTSDFS[Orn][αMeL]LDKK([AEEA-γGlu-C18 diacid])AQ[Aib]AFIEYLLEGGPSSGAP[Hyp]PGGS-NH2 [Example 236] | 24.8 | 261 | 309 | – | – | – | 0.309 | 2.23 | 3.33 | –
H-Y[Aib]QGT[αMePhe(2-F)]TSD[4Pal][αMeS]I[αMeL]LD[Orn]K([AEEA-γGlu-C18 diacid])AQ[αMe4Pal]EFI[dE][αMeY]LIEGGPSSGAPPPGGE-NH2 [Example 1144] | 0.72 | 36.5 | 196 | – | – | – | 0.00649 | 1.32 | 0.282 | –
H-Y[Aib]QGT[αMePhe(2-F)]TSD[4Pal][αMeS]I[αMeL]LD[Orn]K([AEEA-γGlu-C18 diacid])AQ[αMe4Pal]EFI[dE][αMeY]LIEGGPSSGAPPPSGGGEEE-NH2 [Example 1215] | 0.937 | 58.5 | 272 | – | – | – | – | – | – | EC50 [4, 9]: 0.0106 nM; EC50 [5, 9]: 2.09 nM; EC50 [6, 9]: 0.668 nM
CC[C@H](C)[C@H](NC(=O)[C@H](CC(C)C)NC(=O)[C@](C)(Cc1ccc(O)cc1)NC(=O)[C@@H](CCC(=O)O)NC(=O)[C@@H](NC(=O)[C@H](Cc1ccccc1)NC(=O)[C@H](CC(N)=O)NC(=O)C(C)(C)NC(=O)[C@H](CCC(N)=O)NC(=O)[C@H](C)NC(=O)[C@H](CCCCNC(=O)COCCOCCNC(=O)CC[C@H](NC(=O)CCCCCCCCCCCCCCCCC(=O)O)C(=O)O)NC(=O)[C@H](CCCN)NC(=O)[C@H](CC(=O)O)NC(=O)[C@H](CC(C)C)NC(=O)[C@](C)(CC(C)C)NC(=O)[C@@H](NC(=O)[C@](C)(CO)NC(=O)[C@H](Cc1ccncc1)NC(=O)[C@H](CC(=O)O)NC(=O)[C@H](CO)NC(=O)[C@@H](NC(=O)[C@](C)(Cc1ccccc1F)NC(=O)[C@@H](NC(=O)CNC(=O)[C@H](CCC(N)=O)NC(=O)C(C)(C)NC(=O)[C@@H](N)Cc1ccc(O)cc1)[C@@H](C)O)[C@@H](C)O)[C@@H](C)CC)[C@@H](C)CC)C(=O)N[C@@H](CCC(=O)O)C(=O)NCC(=O)NCC(=O)N1CCC[C@H]1C(=O)N[C@@H](CO)C(=O)N[C@@H](CO)C(=O)NCC(=O)N[C@@H](CCC(=O)O)C(=O)N1CCC[C@H]1C(=O)N1CCC[C@H]1C(=O)N1CCC[C@H]1C(=O)N[C@@H](CCC(=O)O)C(N)=O [Example 456] (H-Y[Aib]QGT[αMePhe(2-F)]TSD[4Pal][αMeS]I[αMeL]LD[Orn]K([AEEA-γGlu-C18 diacid])AQ[Aib]NFI[dE][αMeY]LIEGGPSSGEPPPE-NH2) | 0.993 | 12.5 | 230 | 0.00913 | 3.48 | 0.19 | – | – | – | –
H-Y[Aib]QGTFTSDFSK[αMeL]LDKK([AEEA-γGlu-C18 diacid])AQ[Aib]AFIE[αMe4Pal]LIE[Aib]GPSSGAPPPSGS-NH2 [Example 912] | 6.15 | 59.6 | 955 | – | – | – | 0.0387 | 3.76 | 0.414 | –
H-Y[Aib]QGTFTSDFS[Orn][αMeL]LDKK([AEEA-γGlu-C18 diacid])AQ[αMe4Pal]AFIE[αMeY]LIEGGPSSGAPPPSGS-NH2 [Example 845] | 23.3 | 89.1 | 203 | – | – | – | 0.178 | 0.626 | 0.161 | –
H-Y[Aib]QGTFTSDFS[Orn][αMeL]LDKK([AEEA-γGlu-C20 diacid])AQ[Aib]AFIEYLLAGGPSSGAPPPSGS-NH2 [Example 76] | 45.5 | 436 | 2240 | – | – | – | 0.196 | 11.1 | 2.25 | –
